{
  "source": "patent US7582068B2",
  "about": "“Occlusion resistant hydrocephalic shunt” (Medtronic, Inc., priority 2004, dated 2009)",
  "system": "tissue in-growth of the catheter lumen",
  "assay": "Tissue in-growth scoring of catheters explanted from rats after 3 months (SEM)",
  "type": "in vivo, rat",
  "settings": "peritoneal and ventricular catheters in rats, MPA compared to drug-free control, dual drug compared to single drug loading",
  "experimental": "Micophenolic acid (MPA) was loaded into ventricular and peritoneal catheter, design of which is described in the example 16. MPA was loaded into ventricular catheter by solvent impregnation using 50 mg/ml MPA in THF followed by drug loading into a silicone plug with 10 wt % drug concentration. Peritoneal sample was loaded by solvent impregnation using 12.5 mg/ml MPA solution in THF followed by drug loading into a plug using 2.5 mg/ml MPA in silicone rubber. Samples were implanted into rat such that the ventricular sample was placed in a lateral ventricle of the rat and the peritoneal samples was implanted into rat peritoneal cavity. In total 6 ventricular and 6 peritoneal samples were implanted into 6 rats. 12 drug-free catheters of the same configuration were implanted in the other 6 rats as controls. After 3 months samples were explanted and the tissue in-growth was scored between 1 and 5 on a basis of SEM photographs of longitudinally split catheters. […]\nVentricular and peritoneal samples were loaded with RAPA and MPA according to the following procedure: catheters were impregnated with 50 mg/ml of MPA solution in THF followed by plugging with 5 wt % RAPA in silicone Samples were implanted in rats and analyzed as described in the Example 17.",
  "data": [
    {"smiles": "COc1c(C)c2c(c(O)c1C/C=C(\\C)CCC(=O)O)C(=O)OC2", "note": "[MPA, Mycophenolic acid]", "values": [
      {"measurement": "Effect on tissue proliferation (in words)", "value": "decrease of tissue proliferation"}
    ]}
  ]
}
